{
  "source": "paper PMC7334075",
  "about": "(Molecular carcinogenesis, 2020)",
  "target": "KRAS-G12V (Homo sapiens, UniProt P01116, G12V)",
  "assay": "DSF",
  "format": "binding",
  "data": [
    {"smiles": "C=C(C)[C@@H]1CC[C@]2(C)CC[C@]3(C)[C@H](CC[C@@H]4[C@@]5(C)CC[C@H](O)C(C)(C)[C@@H]5CC[C@]43C)[C@@H]12", "note": "[Lupeol, Lup-20(29)-en-3b-ol]", "values": [
      {"measurement": "DSF (SYPRO Orange) with GDP-loaded protein; no Kd", "value": "(loaded with GDP) suggesting binding of Lupeol to both wt-KRAS and KRAS-^G12V protein"}
    ]}
  ]
}
